Test results taken from patent US10253002B2, “Compounds and methods of treating infections” (Neoculi Pty Ltd., priority 2013, dated 2019).
In brackets after ≈: the same amount, converted by molar mass. Read-outs that look alike come from different tables or passages of the source.

Experiments:
Type in all cases: cell-based
Streptococcus pneumoniae = test: Broth microdilution MIC (CLSI) in 4% LHB-CAMHB, Example 1
Description: The powder was dissolved in 10 mL DMSO and 1 mL volumes were aliquoted into eppendorf tubes and stored at -80° C. […] Serial dilutions were prepared in 96 well plates were set up in a safety cabinet according to methods standard in the art. Briefly: 90 μL of the working antibiotic solution was added to each well in Column 12 of the plate, and mixed well, before 90 μL was transferred to column 11. The solutions were mixed again, and then transferred to the next column as before, continuing the dilutions through to column 3. Mixing the well requires the pick up and expulsion of 90 μL in each well 3-4 times before picking up and transferring the 90 μL to the next well. […] The bacterial solution was placed into a sterile trough and 10 μL of bacterial solution added into wells 2 through to 12 on each required row (dilution of 1:10, with final concentration of bacteria in wells=5×10^5 CFU/mL). The tray was sealed and incubated at 37° C. for 18-24 h. The purity of bacterial suspension was confirmed by streaking out 50 μL of the 1:20 dilution onto a SBA plate, which was incubated for 37° C. for 18 h and examined. Viable counts were carried out to ensure that the correct concentration of bacteria and been added to the wells. […] The following day the number of colonies on the plates was counted and the average count in 100 μL obtained. The study was multiplied by 10 to obtain a viable bacterial count per mL. Minimum inhibitory concentrations (μg/mL) were determined using the broth microdilution method recommended by the Clinical and Laboratory Standards Institute (CLSI) (Methods for Dilution Antimicrobial Susceptibility Tests for Bacteria That Grow Aerobically; Approved Standard-Seventh Edition. CLSI M7-A7, 2006; Performance Standards for Antimicrobial Disk and Dilution Susceptibility Tests for Bacteria Isolated from Animals; Approved Standard-Second Edition. CLSI […]-A2, 2002; Performance Standards for Antimicrobial Susceptibility Testing; CLSI M2-A9, 2006). […] Bacterial growth (turbidity) in the wells with antimicrobial was compared with the amount of growth (turbidity) in the growth-control well (containing no antimicrobial). All isolates were tested in duplicate, if there was a difference of greater than one two-fold dilution in the results, the test was repeated a third time. The purity of the isolates was closely monitored during testing by subculturing the prepared bacterial inoculum onto SBA. Control organisms (Enterococcus faecalis strain ATCC 29212, S. aureus strain ATCC 29213 and S. pneumoniae strain ATCC 49619) were used throughout the testing to monitor quality control. […] The MIC50, MIC90 and MIC range (minimum and maximum) were calculated for each of the bacterial groups.

Escherichia coli = test: Broth microdilution MIC, Example 7 (NCL812 and analogues)
Pseudomonas aeruginosa = test: as above; settings: for MIC: Pseudomonas aeruginosa
Salmonella arizonae = test: Broth microdilution MIC, Example 7
Description: Minimum inhibitory concentrations (μg/ml) were determined using the broth microdilution method recommended by the Clinical and Laboratory Standards Institute (CLSI). […] Bacterial growth (turbidity) in the wells with antimicrobial was compared with the amount of growth (turbidity) in the growth-control well (containing no antimicrobial). All isolates were tested in duplicate, if there was a difference of greater than one two-fold dilution in the results, the test was repeated a third time. The purity of the isolates was closely monitored during testing by subculturing the prepared bacterial inoculum onto SBA (sheep blood agar). The MICs of the control strains for the antimicrobial ampicillin were determined for each testing run as an internal quality control. The MIC50, […] and MIC range (minimum and maximum) were calculated for each of the bacterial groups.

[1] = Streptococcus pneumoniae, Strep. pneumoniae 3, Test 2, read-out: MIC
[2] = Streptococcus pneumoniae, Strep. pneumoniae 16, Test 1, read-out: MIC
[3] = Streptococcus pneumoniae, Strep. pneumoniae 16, Test 2, read-out: MIC
[4] = Escherichia coli, read-out: MIC (μg/ml) at 24 hours, E. coli, 24 hours, 1st and 2nd replicate rows
[5] = 24 h, read-out: MIC (μg/ml) at 24 hours, P. aeruginosa, 24 hours, 1st and 2nd replicate rows
[6] = P. aeruginosa, 1st, read-out: MIC
[7] = P. aeruginosa, 2nd, read-out: MIC
[8] = 24 hours, 1st and 2nd replicate rows

`CC1(C)S[C@@H]2[C@H](NC(=O)[C@H](N)c3ccccc3)C(=O)N2[C@H]1C(=O)O` [Ampicillin] gave an MIC90 (Streptococcus pneumoniae; Str. pneumoniae, 20 isolates) of 0.25 µg/mL (≈ 0.715 µM), an MIC90 (Streptococcus pneumoniae; Streptococcus pneumoniae isolates of Table 5, Test 1, read-out: MIC90) of 0.25 µg/mL (≈ 0.715 µM) and an MIC90 (Streptococcus pneumoniae; Streptococcus pneumoniae isolates of Table 5, Test 2) of 0.25 µg/mL (≈ 0.715 µM). The MIC (Streptococcus pneumoniae; Streptococcus pneumoniae, ATCC49619, S. pneumoniae strain ATCC 49619, read-out: MIC of control strain (internal quality control)) was 0.06 µg/mL, the MIC (Streptococcus pneumoniae; Streptococcus pneumoniae, ATCC49619, Strep. pneumoniae ATCC 49619, Test 1, read-out: MIC) was < 0.25 µg/mL and the MIC (Streptococcus pneumoniae; Streptococcus pneumoniae, ATCC49619, Strep. pneumoniae ATCC 49619, Test 2, read-out: MIC) was < 0.25 µg/mL. For the same compound, the MIC (Streptococcus pneumoniae; Streptococcus pneumoniae, Strep. pneumoniae 1, Test 1, read-out: MIC) was < 0.25 µg/mL, the MIC (Streptococcus pneumoniae; Streptococcus pneumoniae, Strep. pneumoniae 1, Test 2, read-out: MIC) was < 0.26 µg/mL and the MIC (Streptococcus pneumoniae; Streptococcus pneumoniae, Strep. pneumoniae 2, Test 1, read-out: MIC) was < 0.26 µg/mL. For the same compound, the MIC (Streptococcus pneumoniae; Streptococcus pneumoniae, Strep. pneumoniae 2, Test 2, read-out: MIC) was < 0.25 µg/mL, the MIC (Streptococcus pneumoniae; Streptococcus pneumoniae, Strep. pneumoniae 3, Test 1, read-out: MIC) was < 0.25 µg/mL and the MIC (Streptococcus pneumoniae; [1]) was < 0.25 µg/mL. The MIC (Streptococcus pneumoniae; Streptococcus pneumoniae, Strep. pneumoniae 4, Test 1, read-out: MIC) was < 0.25 µg/mL, the MIC (Streptococcus pneumoniae; Streptococcus pneumoniae, Strep. pneumoniae 4, Test 2, read-out: MIC) was < 0.25 µg/mL and the MIC (Streptococcus pneumoniae; Streptococcus pneumoniae, Strep. pneumoniae 5, Test 1, read-out: MIC) was < 0.25 µg/mL. For the same compound, the MIC (Streptococcus pneumoniae; Streptococcus pneumoniae, Strep. pneumoniae 5, Test 2, read-out: MIC) was < 0.26 µg/mL, the MIC (Streptococcus pneumoniae; Streptococcus pneumoniae, Strep. pneumoniae 6, Test 1, read-out: MIC) was < 0.26 µg/mL and the MIC (Streptococcus pneumoniae; Streptococcus pneumoniae, Strep. pneumoniae 6, Test 2, read-out: MIC) was < 0.25 µg/mL. For the same compound, the MIC (Streptococcus pneumoniae; Streptococcus pneumoniae, Strep. pneumoniae 7, Test 1, read-out: MIC) was < 0.25 µg/mL, the MIC (Streptococcus pneumoniae; Streptococcus pneumoniae, Strep. pneumoniae 7, Test 2, read-out: MIC) was < 0.26 µg/mL and the MIC (Streptococcus pneumoniae; Streptococcus pneumoniae, Strep. pneumoniae 8, Test 1, read-out: MIC) was < 0.25 µg/mL. For the same compound, the MIC (Streptococcus pneumoniae; Streptococcus pneumoniae, Strep. pneumoniae 8, Test 2, read-out: MIC) was < 0.25 µg/mL, the MIC (Streptococcus pneumoniae; Streptococcus pneumoniae, Strep. pneumoniae 9, Test 1, read-out: MIC) was < 0.26 µg/mL and the MIC (Streptococcus pneumoniae; Streptococcus pneumoniae, Strep. pneumoniae 9, Test 2, read-out: MIC) was < 0.25 µg/mL. For the same compound, the MIC (Streptococcus pneumoniae; Streptococcus pneumoniae, Strep. pneumoniae 10, Test 1, read-out: MIC) was < 0.06 µg/mL, the MIC (Streptococcus pneumoniae; Streptococcus pneumoniae, Strep. pneumoniae 10, Test 2, read-out: MIC) was < 0.06 µg/mL and the MIC (Streptococcus pneumoniae; Streptococcus pneumoniae, Strep. pneumoniae 12, Test 1, read-out: MIC) was < 0.06 µg/mL. For the same compound, the MIC (Streptococcus pneumoniae; Streptococcus pneumoniae, Strep. pneumoniae 12, Test 2, read-out: MIC) was < 0.06 µg/mL, the MIC (Streptococcus pneumoniae; Streptococcus pneumoniae, Strep. pneumoniae 13, Test 1, read-out: MIC) was < 0.06 µg/mL and the MIC (Streptococcus pneumoniae; Streptococcus pneumoniae, Strep. pneumoniae 13, Test 2, read-out: MIC) was < 0.06 µg/mL. For the same compound, the MIC (Streptococcus pneumoniae; Streptococcus pneumoniae, Strep. pneumoniae 14, Test 1, read-out: MIC) was < 0.06 µg/mL, the MIC (Streptococcus pneumoniae; Streptococcus pneumoniae, Strep. pneumoniae 14, Test 2, read-out: MIC) was < 0.06 µg/mL and the MIC (Streptococcus pneumoniae; Streptococcus pneumoniae, Strep. pneumoniae 15, Test 1, read-out: MIC) was 0.25 µg/mL (≈ 0.715 µM). The MIC (Streptococcus pneumoniae; Streptococcus pneumoniae, Strep. pneumoniae 15, Test 2, read-out: MIC) was 0.25 µg/mL (≈ 0.715 µM), the MIC (Streptococcus pneumoniae; [2]) was 2 µg/mL (≈ 5.72 µM) and the MIC (Streptococcus pneumoniae; [3]) was 2 µg/mL (≈ 5.72 µM). The MIC (Streptococcus pneumoniae; Streptococcus pneumoniae, Strep. pneumoniae 18, Test 1, read-out: MIC) was 0.25 µg/mL (≈ 0.715 µM), the MIC (Streptococcus pneumoniae; Streptococcus pneumoniae, Strep. pneumoniae 18, Test 2, read-out: MIC) was 0.25 µg/mL (≈ 0.715 µM) and the MIC (Streptococcus pneumoniae; Streptococcus pneumoniae, Strep. pneumoniae 19, Test 1, read-out: MIC) was 0.25 µg/mL (≈ 0.715 µM). It also gave an MIC (Streptococcus pneumoniae; Streptococcus pneumoniae, Strep. pneumoniae 19, Test 2, read-out: MIC) of 0.25 µg/mL (≈ 0.715 µM), an MIC (Streptococcus pneumoniae; Streptococcus pneumoniae, Strep. pneumoniae 20, Test 1, read-out: MIC) of 2 µg/mL (≈ 5.72 µM) and an MIC (Streptococcus pneumoniae; Streptococcus pneumoniae, Strep. pneumoniae 20, Test 2, read-out: MIC) of 2 µg/mL (≈ 5.72 µM). The MIC50 (Streptococcus pneumoniae; Streptococcus pneumoniae, Str. pneumoniae, 20 isolates) was < 0.25 µg/mL, the MIC (Streptococcus pneumoniae; Streptococcus pneumoniae, Str. pneumoniae, 20 isolates, read-out: MIC mode) was < 0.25 µg/mL and the MIC (Escherichia coli; E. coli, 2nd) was 4 µg/mL (≈ 11.4 µM). For the same compound, the MIC (Escherichia coli; [4]) was 4 µg/mL (≈ 11.4 µM), the MIC (Escherichia coli; Escherichia coli, E. coli, 1st, read-out: MIC) was 4 µg/mL (≈ 11.4 µM) and the MIC (Pseudomonas aeruginosa; [5]) was > 128 µg/mL. For the same compound, the MIC (Pseudomonas aeruginosa; [6]) was > 128 µg/mL, the MIC (Pseudomonas aeruginosa; [7]) was > 128 µg/mL and the MIC (Salmonella arizonae; S. arizonae, 2nd) was 1 µg/mL (≈ 2.86 µM). The MIC (Salmonella arizonae; Salmonella enterica, S. arizonae, 1st, read-out: MIC) was 1 µg/mL (≈ 2.86 µM).
Work on `N=C(N/N=C/c1ccc(Cl)cc1)N/N=C/c1ccc(Cl)cc1` [NCL812, 1,3-bis[(E)-(4-chlorophenyl)methyleneamino]guanidine] yielded an MIC (Streptococcus pneumoniae; [1]) of 2 µg/mL (≈ 5.98 µM), an MIC (Streptococcus pneumoniae; [2]) of 0.5 µg/mL (≈ 1.5 µM) and an MIC (Streptococcus pneumoniae; [3]) of 1 µg/mL (≈ 2.99 µM). The “MIC (μg/ml) at 24 hours, E. coli” value (Escherichia coli; [8]) was >128 µg/mL, the MIC (Escherichia coli; E. coli, 1st) was >128 µg/mL and the MIC (Escherichia coli; E. coli, 2nd) was >128 µg/mL. For the same compound, the MIC (Escherichia coli; [4]) was > 128 µg/mL, the MIC (Escherichia coli; Escherichia coli, read-out: MIC) was > 128 µg/mL and the “MIC (μg/ml) at 24 hours, P. aeruginosa” value (Pseudomonas aeruginosa; [8]) was >128 µg/mL. The MIC (Pseudomonas aeruginosa; [5]) was > 128 µg/mL, the MIC (Pseudomonas aeruginosa; [6]) was > 128 µg/mL and the MIC (Pseudomonas aeruginosa; [7]) was > 128 µg/mL. The MIC (Pseudomonas aeruginosa; read-out: MIC) was > 128 µg/mL, the MIC (Salmonella arizonae; S. arizonae, 1st) was >128 µg/mL and the MIC (Salmonella arizonae; S. arizonae, 2nd) was >128 µg/mL. The MIC (Salmonella arizonae; Salmonella enterica, Salmonella arizonae, read-out: MIC) was > 128 µg/mL.
